Results from ChEMBL document CHEMBL4251572, “Novel aminopyrimidinyl benzimidazoles as potentially antimicrobial agents: Design, synthesis and biological evaluation” (Eur J Med Chem, 2018).
In brackets after ≈: the same amount, converted by molar mass.

Experiments:
Saccharomyces cerevisiae = experiment: Antifungal against Saccharomyces cerevisiae after 24 hrs by two fold serial dilution method; assay type: functional
Staphylococcus aureus [1] = experiment: Antibacterial activity against methicillin-resistant Staphylococcus aureus N315 after 24 hrs by micro broth dilution assay; assay type: functional; conditions: N315, 24 h
Aspergillus flavus = experiment: Antifungal against Aspergillus flavus after 24 hrs by two fold serial dilution method; assay type: functional
Salmonella typhi = experiment: Antibacterial activity against Bacillus typhi after 24 hrs by micro broth dilution assay; assay type: functional, Salmonella enterica subsp. enterica serovar Typhi; conditions: Salmonella enterica
Pseudomonas aeruginosa = experiment: Antibacterial activity against Pseudomonas aeruginosa after 24 hrs by micro broth dilution assay; assay type: functional
Pichia norvegensis = experiment: Antifungal against Candida mycoderma after 24 hrs by two fold serial dilution method; assay type: functional
Staphylococcus aureus [2] = experiment: Antibacterial activity against Staphylococcus aureus ATCC 25923 after 24 hrs by micro broth dilution assay; assay type: functional; conditions: ATCC 25923, 24 h
Shigella dysenteriae = experiment: Antibacterial activity against Shigella dysenteriae after 24 hrs by micro broth dilution assay; assay type: functional
Escherichia coli [3] = experiment: Antibacterial activity against Escherichia coli DH52 after 24 hrs by micro broth dilution assay; assay type: functional; conditions: DH52, 24 h
Escherichia coli [4] = experiment: Antibacterial activity against Escherichia coli JM109 after 24 hrs by micro broth dilution assay; assay type: functional; conditions: JM109, 24 h
Candida albicans = experiment: Antifungal against Candida albicans ATCC 76615 after 24 hrs by two fold serial dilution method; assay type: functional; conditions: ATCC 76615, 24 h
Bacillus subtilis = experiment: Antibacterial activity against Bacillus subtilis after 24 hrs by micro broth dilution assay; assay type: functional
Cyberlindnera jadinii = experiment: Antifungal against Candida utilis after 24 hrs by two fold serial dilution method; assay type: functional; conditions: Williopsis jadinii
Micrococcus luteus = experiment: Antibacterial activity against Micrococcus luteus ATCC4698 after 24 hrs by micro broth dilution assay; assay type: functional; conditions: ATCC4698, 24 h
Bacillus = experiment: Antibacterial activity against Bacillus proteus ATCC 13315 after 24 hrs by micro broth dilution assay; assay type: functional; conditions: ATCC 13315, 24 h

## O=C(/C=C/c1ccc(Cl)cc1)c1nc2ccccc2[nH]1
Saccharomyces cerevisiae
  MIC: 128 µg/mL (≈ 453 µM)
Staphylococcus aureus [1]
  MIC: 512 µg/mL (≈ 1810 µM)
Aspergillus flavus
  MIC: 32 µg/mL (≈ 113 µM)
Salmonella typhi
  MIC: 512 µg/mL (≈ 1810 µM)
Pseudomonas aeruginosa
  MIC: 512 µg/mL (≈ 1810 µM)
Pichia norvegensis
  MIC: 512 µg/mL (≈ 1810 µM)
Staphylococcus aureus [2]
  MIC: 128 µg/mL (≈ 453 µM)
Shigella dysenteriae
  MIC: 512 µg/mL (≈ 1810 µM)
Escherichia coli [3]
  MIC: 8 µg/mL (≈ 28.3 µM)
Escherichia coli [4]
  MIC: 256 µg/mL (≈ 905 µM)
Candida albicans
  MIC: 512 µg/mL (≈ 1810 µM)
Bacillus subtilis
  MIC: 512 µg/mL (≈ 1810 µM)
Cyberlindnera jadinii
  MIC: 512 µg/mL (≈ 1810 µM)
Micrococcus luteus
  MIC: 64 µg/mL (≈ 226 µM)
Bacillus
  MIC: 512 µg/mL (≈ 1810 µM)

## CCCCCCn1c(-c2cc(-c3ccc(F)cc3)nc(N)n2)nc2ccccc21
Saccharomyces cerevisiae
  MIC: 512 µg/mL (≈ 1310 µM)
Staphylococcus aureus [1]
  MIC: 256 µg/mL (≈ 657 µM)
Aspergillus flavus
  MIC: 512 µg/mL (≈ 1310 µM)
Salmonella typhi
  MIC: 32 µg/mL (≈ 82.2 µM)
Pseudomonas aeruginosa
  MIC: 128 µg/mL (≈ 329 µM)
Pichia norvegensis
  MIC: 4 µg/mL (≈ 10.3 µM)
Staphylococcus aureus [2]
  MIC: 512 µg/mL (≈ 1310 µM)
Shigella dysenteriae
  MIC: 512 µg/mL (≈ 1310 µM)
Escherichia coli [3]
  MIC: 512 µg/mL (≈ 1310 µM)
Escherichia coli [4]
  MIC: 512 µg/mL (≈ 1310 µM)
Candida albicans
  MIC: 256 µg/mL (≈ 657 µM)
Bacillus subtilis
  MIC: 512 µg/mL (≈ 1310 µM)
Cyberlindnera jadinii
  MIC: 8 µg/mL (≈ 20.5 µM)
Micrococcus luteus
  MIC: 16 µg/mL (≈ 41.1 µM)
Bacillus
  MIC: 128 µg/mL (≈ 329 µM)

## CCCCCCCCn1c(C(=O)/C=C/c2ccc(Cl)cc2Cl)nc2ccccc21
Saccharomyces cerevisiae
  MIC: 512 µg/mL (≈ 1190 µM)
Staphylococcus aureus [1]
  MIC: 64 µg/mL (≈ 149 µM)
Aspergillus flavus
  MIC: 512 µg/mL (≈ 1190 µM)
Salmonella typhi
  MIC: 512 µg/mL (≈ 1190 µM)
Pseudomonas aeruginosa
  MIC: 512 µg/mL (≈ 1190 µM)
Pichia norvegensis
  MIC: 512 µg/mL (≈ 1190 µM)
Staphylococcus aureus [2]
  MIC: 512 µg/mL (≈ 1190 µM)
Shigella dysenteriae
  MIC: 512 µg/mL (≈ 1190 µM)
Escherichia coli [3]
  MIC: 512 µg/mL (≈ 1190 µM)
Escherichia coli [4]
  MIC: 256 µg/mL (≈ 596 µM)
Candida albicans
  MIC: 512 µg/mL (≈ 1190 µM)
Bacillus subtilis
  MIC: 512 µg/mL (≈ 1190 µM)
Cyberlindnera jadinii
  MIC: 512 µg/mL (≈ 1190 µM)
Micrococcus luteus
  MIC: 512 µg/mL (≈ 1190 µM)
Bacillus
  MIC: 512 µg/mL (≈ 1190 µM)

## CCCCn1c(C(=O)/C=C/c2ccc(F)cc2)nc2ccccc21
Saccharomyces cerevisiae
  MIC: 512 µg/mL (≈ 1590 µM)
Staphylococcus aureus [1]
  MIC: 8 µg/mL (≈ 24.8 µM)
Aspergillus flavus
  MIC: 128 µg/mL (≈ 397 µM)
Salmonella typhi
  MIC: 8 µg/mL (≈ 24.8 µM)
Pseudomonas aeruginosa
  MIC: 0.5 µg/mL (≈ 1.55 µM)
Pichia norvegensis
  MIC: 64 µg/mL (≈ 199 µM)
Staphylococcus aureus [2]
  MIC: 4 µg/mL (≈ 12.4 µM)
Shigella dysenteriae
  MIC: 4 µg/mL (≈ 12.4 µM)
Escherichia coli [3]
  MIC: 64 µg/mL (≈ 199 µM)
Escherichia coli [4]
  MIC: 16 µg/mL (≈ 49.6 µM)
Candida albicans
  MIC: 16 µg/mL (≈ 49.6 µM)
Bacillus subtilis
  MIC: 4 µg/mL (≈ 12.4 µM)
Cyberlindnera jadinii
  MIC: 16 µg/mL (≈ 49.6 µM)
Micrococcus luteus
  MIC: 8 µg/mL (≈ 24.8 µM)
Bacillus
  MIC: 512 µg/mL (≈ 1590 µM)

## CCCCCCCn1c(C(=O)/C=C/c2ccc(C)cc2)nc2ccccc21
Saccharomyces cerevisiae
  MIC: 512 µg/mL (≈ 1420 µM)
Staphylococcus aureus [1]
  MIC: 8 µg/mL (≈ 22.2 µM)
Aspergillus flavus
  MIC: 512 µg/mL (≈ 1420 µM)
Salmonella typhi
  MIC: 512 µg/mL (≈ 1420 µM)
Pseudomonas aeruginosa
  MIC: 512 µg/mL (≈ 1420 µM)
Pichia norvegensis
  MIC: 512 µg/mL (≈ 1420 µM)
Staphylococcus aureus [2]
  MIC: 4 µg/mL (≈ 11.1 µM)
Shigella dysenteriae
  MIC: 512 µg/mL (≈ 1420 µM)
Escherichia coli [3]
  MIC: 512 µg/mL (≈ 1420 µM)
Escherichia coli [4]
  MIC: 512 µg/mL (≈ 1420 µM)
Candida albicans
  MIC: 16 µg/mL (≈ 44.4 µM)
Bacillus subtilis
  MIC: 512 µg/mL (≈ 1420 µM)
Cyberlindnera jadinii
  MIC: 512 µg/mL (≈ 1420 µM)
Micrococcus luteus
  MIC: 512 µg/mL (≈ 1420 µM)
Bacillus
  MIC: 512 µg/mL (≈ 1420 µM)

## CCCCCCCn1c(-c2cc(-c3ccc(Cl)cc3)nc(N)n2)nc2ccccc21
Saccharomyces cerevisiae
  MIC: 8 µg/mL (≈ 19 µM)
Staphylococcus aureus [1]
  MIC: 8 µg/mL (≈ 19 µM)
Aspergillus flavus
  MIC: 256 µg/mL (≈ 610 µM)
Salmonella typhi
  MIC: 8 µg/mL (≈ 19 µM)
Pseudomonas aeruginosa
  MIC: 64 µg/mL (≈ 152 µM)
Pichia norvegensis
  MIC: 16 µg/mL (≈ 38.1 µM)
Staphylococcus aureus [2]
  MIC: 128 µg/mL (≈ 305 µM)
Shigella dysenteriae
  MIC: 4 µg/mL (≈ 9.52 µM)
Escherichia coli [3]
  MIC: 16 µg/mL (≈ 38.1 µM)
Escherichia coli [4]
  MIC: 512 µg/mL (≈ 1220 µM)
Candida albicans
  MIC: 128 µg/mL (≈ 305 µM)
Bacillus subtilis
  MIC: 2 µg/mL (≈ 4.76 µM)
Cyberlindnera jadinii
  MIC: 4 µg/mL (≈ 9.52 µM)
Micrococcus luteus
  MIC: 512 µg/mL (≈ 1220 µM)
Bacillus
  MIC: 512 µg/mL (≈ 1220 µM)

## CCCCCCCn1c(C(=O)/C=C/c2ccc(Cl)cc2)nc2ccccc21
Saccharomyces cerevisiae
  MIC: 512 µg/mL (≈ 1340 µM)
Staphylococcus aureus [1]
  MIC: 512 µg/mL (≈ 1340 µM)
Aspergillus flavus
  MIC: 64 µg/mL (≈ 168 µM)
Salmonella typhi
  MIC: 512 µg/mL (≈ 1340 µM)
Pseudomonas aeruginosa
  MIC: 512 µg/mL (≈ 1340 µM)
Pichia norvegensis
  MIC: 512 µg/mL (≈ 1340 µM)
Staphylococcus aureus [2]
  MIC: 256 µg/mL (≈ 672 µM)
Shigella dysenteriae
  MIC: 512 µg/mL (≈ 1340 µM)
Escherichia coli [3]
  MIC: 32 µg/mL (≈ 84 µM)
Escherichia coli [4]
  MIC: 512 µg/mL (≈ 1340 µM)
Candida albicans
  MIC: 512 µg/mL (≈ 1340 µM)
Bacillus subtilis
  MIC: 256 µg/mL (≈ 672 µM)
Cyberlindnera jadinii
  MIC: 512 µg/mL (≈ 1340 µM)
Micrococcus luteus
  MIC: 8 µg/mL (≈ 21 µM)
Bacillus
  MIC: 512 µg/mL (≈ 1340 µM)

## CCCCCCCCn1c(-c2cc(-c3ccc(Cl)cc3Cl)nc(N)n2)nc2ccccc21
Saccharomyces cerevisiae
  MIC: 16 µg/mL (≈ 34.2 µM)
Staphylococcus aureus [1]
  MIC: 256 µg/mL (≈ 547 µM)
Aspergillus flavus
  MIC: 512 µg/mL (≈ 1090 µM)
Salmonella typhi
  MIC: 512 µg/mL (≈ 1090 µM)
Pseudomonas aeruginosa
  MIC: 512 µg/mL (≈ 1090 µM)
Pichia norvegensis
  MIC: 512 µg/mL (≈ 1090 µM)
Staphylococcus aureus [2]
  MIC: 256 µg/mL (≈ 547 µM)
Shigella dysenteriae
  MIC: 512 µg/mL (≈ 1090 µM)
Escherichia coli [3]
  MIC: 512 µg/mL (≈ 1090 µM)
Escherichia coli [4]
  MIC: 512 µg/mL (≈ 1090 µM)
Candida albicans
  MIC: 512 µg/mL (≈ 1090 µM)
Bacillus subtilis
  MIC: 512 µg/mL (≈ 1090 µM)
Cyberlindnera jadinii
  MIC: 8 µg/mL (≈ 17.1 µM)
Micrococcus luteus
  MIC: 32 µg/mL (≈ 68.3 µM)
Bacillus
  MIC: 4 µg/mL (≈ 8.54 µM)

## CCCCn1c(C(=O)/C=C/c2ccc(Cl)cc2)nc2ccccc21
Saccharomyces cerevisiae
  MIC: 16 µg/mL (≈ 47.2 µM)
Staphylococcus aureus [1]
  MIC: 8 µg/mL (≈ 23.6 µM)
Aspergillus flavus
  MIC: 512 µg/mL (≈ 1510 µM)
Salmonella typhi
  MIC: 512 µg/mL (≈ 1510 µM)
Pseudomonas aeruginosa
  MIC: 512 µg/mL (≈ 1510 µM)
Pichia norvegensis
  MIC: 256 µg/mL (≈ 756 µM)
Staphylococcus aureus [2]
  MIC: 64 µg/mL (≈ 189 µM)
Shigella dysenteriae
  MIC: 32 µg/mL (≈ 94.4 µM)
Escherichia coli [3]
  MIC: 512 µg/mL (≈ 1510 µM)
Escherichia coli [4]
  MIC: 256 µg/mL (≈ 756 µM)
Candida albicans
  MIC: 256 µg/mL (≈ 756 µM)
Bacillus subtilis
  MIC: 512 µg/mL (≈ 1510 µM)
Cyberlindnera jadinii
  MIC: 512 µg/mL (≈ 1510 µM)
Micrococcus luteus
  MIC: 512 µg/mL (≈ 1510 µM)
Bacillus
  MIC: 128 µg/mL (≈ 378 µM)

## CCCCCCn1c(C(=O)/C=C/c2ccc(C)cc2)nc2ccccc21
Saccharomyces cerevisiae
  MIC: 512 µg/mL (≈ 1480 µM)
Staphylococcus aureus [1]
  MIC: 16 µg/mL (≈ 46.2 µM)
Aspergillus flavus
  MIC: 512 µg/mL (≈ 1480 µM)
Salmonella typhi
  MIC: 512 µg/mL (≈ 1480 µM)
Pseudomonas aeruginosa
  MIC: 512 µg/mL (≈ 1480 µM)
Pichia norvegensis
  MIC: 512 µg/mL (≈ 1480 µM)
Staphylococcus aureus [2]
  MIC: 512 µg/mL (≈ 1480 µM)
Shigella dysenteriae
  MIC: 512 µg/mL (≈ 1480 µM)
Escherichia coli [3]
  MIC: 512 µg/mL (≈ 1480 µM)
Escherichia coli [4]
  MIC: 512 µg/mL (≈ 1480 µM)
Candida albicans
  MIC: 512 µg/mL (≈ 1480 µM)
Bacillus subtilis
  MIC: 512 µg/mL (≈ 1480 µM)
Cyberlindnera jadinii
  MIC: 512 µg/mL (≈ 1480 µM)
Micrococcus luteus
  MIC: 512 µg/mL (≈ 1480 µM)
Bacillus
  MIC: 512 µg/mL (≈ 1480 µM)
